Key:
[1] = test system: human melanoma A375 cells; assay: Cell permeabilization to DAPI, flow cytometry analysis; type: cell-based
Experimental: The activity of plasmon-driven MJHs to open cell membranes by VDA upon NIR light-activation was evaluated in human melanoma A375 cells. When the cell membranes were open by VDA, DAPI enters immediately into the cells and stain the nucleus, and flow cytometry analysis was used to quantify the percentage of DAPI positive cells at variable concentrations of MJH. The flow cytometry analysis is conducted immediately after the cells were treated with 730 nm LED light at 80 mW/cm^2 for 10 min. Typically, it took ˜30 s to start cell counting and observe that DAPI already had entered into the cell membrane-compromised cells but not in the controls without VDA action. This is indicative of a rapid necrotic cell death and cell membrane permeabilization to DAPI by VDA action. The effective concentration needed to permeabilize cells by 50% (VDA IC50) was estimated for each molecule.
The flow cytometry data was analyzed using FlowJo software version 10.5.3. Then, a wide polygonal gate was drawn as shown in FIG. 33A since we were interested in detecting any cell death after treatment, we were not only interested in measuring healthy cell populations. Sometimes, we observed that the death cell population upon treatment shifted outside the gate if a narrow gate was used. Then, the singlets were selected and the DAPI fluorescence intensity was plotted versus the SSC-A and the gate for DAPI positive cells was drawn as shown in FIG. 33C and the analysis was applied to all samples in the group. In FIG. 33D, a DAPI positive population is observed in the same analysis group. This analysis was applied to calculate the percentage of DAPI positive cells.
Cell Permeabilization and flow cytometry analysis. A375 cells were cultured as described before. One day before the treatment, cells were inoculated at 5 million cells per dish (10 cm polystyrene tissue culture dish). The cells were harvested using 0.05% trypsin-EDTA (Gibco, 25-300-054), then the cells were counted and were adjusted to a cell density of 2×10^5 cells/mL in DMEM media with L-glutamine, 4.5 g/L glucose, and sodium pyruvate (Corning Inc. 10013CV) and supplemented with 10% FBS (Corning, 35010CV), 2×MEM vitamin solution (Gibco, 11120052), 1×MEM non-essential amino acid solution (Gibco, 11140050) and penicillin/streptomycin. 1 mL of this cell suspension containing 2×10^5 cells was used in each treatment. In a 1.5 mL Eppendorf tube, […] containing 2 mM Cy7.5-amine (or other cyanine molecule or other concentration) in DMSO (Fisher, 99.7%) was placed in the bottom of the tube, then 1 mL of the cell suspension was added into the tube to get final concentration of 2 μM of Cy7.5-amine containing 0.1% DMSO and 2×10^5 cells. The mixture was then incubated at 37° C. and 5% CO2 for 30 min. Then, 1 mM DAPI was added into the cell suspension. Then, the cells suspension was transferred to a […] tissue culture dish and immediately the cells were treated under the light beam of NIR light of 730 nm at 80 mW/cm^2 (or adjusted powers down to 20 mW/cm^2) for 10 min (or adjusted illumination times down to 30 s) using LED light source (PRIZMATIX, UHP-F-730, Israel) which covered the entire dish. While the cells were treated, the dish was placed on top of an aluminum block painted black, so that the excess NR light and that was not reflected back into the cell suspension while the aluminum block actED as a heat-sink, maintaining a constant temperature in the dish during the irradiation. The instrument for flow cytometry analysis (SONY, MA900 Multi-Application Cell Sorter) was already set up and calibrated by the time the light treatment was finished. Therefore, as soon as the 10-min light treatment was completed, the cell suspension was rapidly transferred from the 35 mm dish to a flow cytometry tube and the cells were analyzed for DAPI permeabilization and Cy7.5-amine binding. It took ˜30 s to load the sample and to start the analysis. […]

[2] = test system: A375 human melanoma tumors; assay: Treatment of A375 human melanoma tumors in nude mice; type: in vivo, mouse
Experimental: Preparation of fresh solution of 200 μM Cy7.5-amine and 2.5% DMSO for in vivo studies. In the day of treatment, fresh solution of 200 μM Cy7.5-amine was prepared by diluting in PBS buffer the 8 mM Cy7.5-amine stock in DMSO, the final dilution contained 2.5% DMSO. As control 2.5% DMSO in PBS buffer was used.
Injection of A375 cells subcutaneously in athymic nude mice to generate the human melanoma tumor model. The A375 cells were culture as described before. Cells were harvested from sub-confluent plates, ˜90%, and fresh media was added to the cells the day before harvesting. The cells were harvested using 0.05% trypsin-EDTA (Gibco, 25-300-054). The harvested cells were re-dispersed in DMEM media without supplements at 50×10^6 cells mL^−1. The cell suspension was kept in ice. Then 100 μL of cells were injected per mouse (this was 5 million of cells per mouse) subcutaneously in the right flank of 7-8 weeks old female athymic nude mouse. Starting at day 2 the tumors were measured using a caliper. The typical volume of the tumors at day 2 was ˜33 mm^3. The volume of the tumor was calculated as: (½)×length×width×height. When the height was not possible to measure in the case of the tumors that were too small (usually <100 mm^3), then the tumor volume was calculated as: (½)×length×width^2.
Treatment of A375 tumors with Cy7.5-amine and NIR 730 nm light. The tumors were treated at day 3 (since 5 million initial cells were injected per tumor site) when the average tumors size was 35 mm^3. Forty mice were divided in 4 groups (number of mice per group, n=10): 1) Cy7.5-amine only 2) 2.5% DMSO only, 3) 2.5% DMSO+Light and 3) Cy7.5-amine+light. The day of treatment, fresh solutions (200 μM of Cy7.5-amine in PBS and controls 2.5% DMSO in PBS) were prepared as described before. The mice were anesthetized with isoflurane using a vaporizer. Then, each mouse was injected with 50 μL of 200 μM Cy7.5-amine solution in PBS or 2.5% DMSO, intratumorally. Then mice were kept for 25 min in the cages to let the Cy7.5-amine solution or DMSO solution interact with the tumors. Then, after the 25 min of incubation, the mice were treated (under anesthesia, using isoflurane) with 730 nm LED light source from Prizmatix applying a power intensity of 150 mWcm^−2 for 5 min (other power intensities were 210 mWcm^−2 for 5 min and 300 mWcm^−2 for 5 min as described in the treatment schedule in FIG. 27F). The light intensity was measured using an Optical Power Meter from Thorlabs, sensor model S302C and console model PM100D. When the treatment was finished the mice were put back into the cages and housed in the animal facility. The tumors sizes were measured every other day using a caliper in the first 20 days of the study and then in the late stage of the study twice a week.

CN1/C(=C\C=C2C=C(/C=C/C3=[N+](CCCCCC(=O)NCCCCCCN)c4ccc5ccccc5c4C3(C)C)CCC\2)C(C)(C)c2c1ccc1ccccc21 [Cy7.5-amine]
permeabilization to DAPI staining, percentage of cells ([1]; 1 μM, 730 nm LED at 80 mW/cm^2 for 10 min): 99.6% | binding to cells upon addition of acetic acid ([1]; 2 μM, acetic acid 0 mM-10 mM): not able to bind efficiently to lipid membranes | mice tumor free ([2]; 8 μg intratumoral + light (300 mWcm^−2 of 730 nm LED for 5 min)): 50% | survival rate of mice with A375 tumors ([2]; 8 μg intratumoral + light (300 mWcm^−2 of 730 nm LED for 5 min), day 120): 60% | effect on size of A375 tumors ([2]; 150-215 mWCm^−2): mild therapeutic effect | effect on size of A375 tumors ([2]; 300 mWCm^−2): strong effect on the regression of the tumor size | survival of mice with A375 tumors ([2]; Cy7.5-amine group without light): 20%

— US20250170098A1, “MOLECULAR JACKHAMMER FOR MECHANICAL DESTRUCTION OF CELLULAR STRUCTURE” (William Marsh Rice University, priority 2022, published 2025)
